Test systems include BT-549 breast; CAKI-1 renal; DU-145 prostate; EKVX NSCLC; HL-60(TB) leukemia; HT29 colon; KM12 colon; MALME-3M melanoma; MOLT-4 leukemia; NCI-H23 lung; NCI-H460 lung; OVCAR-8 ovarian; RPMI-8226 leukemia; SK-MEL-2 melanoma; SNB-75 CNS; TK-10 renal; UACC-257 melanoma; HS 578T breast; RXF 393 renal.
Holding throughout (test): NCI anticancer screen, dose series, 48 h

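Cells were grown in 96-well plates and exposed to each compound for 48 hours at five concentrations; endpoints were interpolated linearly between bracketing concentrations, or set to the highest concentration if not reached. TGI: total growth inhibition.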 Where only a bound is given, the exact number is not on record here.

Here are results for eight molecules from PubChem BioAssay (NCI).

Turning to `Cn1c(=O)cc(N2CCCC2)[nH]c1=O`, the TGI with BT-549 breast, with CAKI-1 renal, in the experiment with DU-145 prostate, in the experiment with EKVX NSCLC, in the experiment on HL-60(TB) leukemia and in the experiment on HT29 colon was over 100 µM in each case. Also, the TGI with KM12 colon, in the experiment with MALME-3M melanoma, in the experiment on MOLT-4 leukemia, in the experiment with NCI-H23 lung, in the experiment on NCI-H460 lung and in the experiment on OVCAR-8 ovarian was over 100 µM each time. Further, the TGI in the experiment on RPMI-8226 leukemia, with SK-MEL-2 melanoma, in the experiment on SNB-75 CNS, in the experiment on TK-10 renal and in the experiment with UACC-257 melanoma was over 100 µM in each case.

As to `Fc1ccc2c3c([nH]c2c1)CCNC3`, the TGI in the experiment on DU-145 prostate, with EKVX NSCLC, in the experiment with HL-60(TB) leukemia, with HS 578T breast, in the experiment with HT29 colon and in the experiment with KM12 colon was over 100 µM throughout. The TGI in the experiment on MALME-3M melanoma, in the experiment with MOLT-4 leukemia, with NCI-H23 lung, with NCI-H460 lung, in the experiment on OVCAR-8 ovarian and in the experiment with RPMI-8226 leukemia was over 100 µM throughout. In addition, the TGI in the experiment on RXF 393 renal, in the experiment with SNB-75 CNS, in the experiment on TK-10 renal and in the experiment with UACC-257 melanoma was over 100 µM throughout.

`COC(=O)[C@@H]1OC(C)(c2ccccc2)O[C@H]1C(=O)OC`: the TGI with CAKI-1 renal, in the experiment on DU-145 prostate, in the experiment with EKVX NSCLC, in the experiment on HL-60(TB) leukemia, in the experiment with HS 578T breast and with HT29 colon was over 100 µM throughout. The TGI in the experiment with KM12 colon, in the experiment on MALME-3M melanoma, in the experiment on MOLT-4 leukemia, in the experiment with NCI-H23 lung, with NCI-H460 lung and in the experiment with OVCAR-8 ovarian was over 100 µM in each case. Also, the TGI in the experiment with RPMI-8226 leukemia, in the experiment with RXF 393 renal, in the experiment on SK-MEL-2 melanoma, in the experiment with SNB-75 CNS, in the experiment with TK-10 renal and in the experiment on UACC-257 melanoma was over 100 µM in each case.

With `OC(CC(O)(C(F)(F)F)C(F)(F)F)C(O)c1ccco1` (stereo not given), the TGI in the experiment with CAKI-1 renal, in the experiment with DU-145 prostate, in the experiment on EKVX NSCLC, with HL-60(TB) leukemia, in the experiment on HS 578T breast and with HT29 colon was over 10 µM each time. In addition, the TGI in the experiment with KM12 colon, with MALME-3M melanoma, in the experiment with MOLT-4 leukemia, in the experiment with NCI-H23 lung, in the experiment with NCI-H460 lung and with OVCAR-8 ovarian was over 10 µM throughout. In addition, the TGI in the experiment on RPMI-8226 leukemia, in the experiment on RXF 393 renal, with SK-MEL-2 melanoma, with SNB-75 CNS, in the experiment with TK-10 renal and in the experiment on UACC-257 melanoma was over 10 µM in each case.

Turning to `CN(C)Cc1cc(/C=C/C(=O)c2ccc(Cl)c(Cl)c2)cc(CN(C)C)c1O`, the TGI with BT-549 breast was 22.2 µM; in the experiment on CAKI-1 renal, 21.1 µM; in the experiment on DU-145 prostate, 27.1 µM; in the experiment on EKVX NSCLC it was 30.1 µM; in the experiment with HL-60(TB) leukemia, over 100 µM; in the experiment with HT29 colon, 28.6 µM. The TGI in the experiment with KM12 colon worked out at 26.3 µM; in the experiment with MALME-3M melanoma it was 22.7 µM; with MOLT-4 leukemia, 32.3 µM; in the experiment on NCI-H460 lung it was 22.7 µM; with OVCAR-8 ovarian, 32.8 µM; in the experiment with RPMI-8226 leukemia, 36.8 µM. Also, the TGI was found to be 28.4 µM in the experiment on RXF 393 renal; 31 µM in the experiment on SK-MEL-2 melanoma; 21.1 µM with SNB-75 CNS; 25.6 µM in the experiment with TK-10 renal; 25.8 µM in the experiment on UACC-257 melanoma.

Consider `Cc1ccc(C2SCC(=O)N2NC(=O)c2ccncc2)s1` (stereo not given), for which the TGI in the experiment with BT-549 breast, in the experiment on CAKI-1 renal, in the experiment on DU-145 prostate, in the experiment on EKVX NSCLC, in the experiment on HT29 colon and in the experiment on KM12 colon was over 100 µM each time. For the same molecule, the TGI in the experiment with MALME-3M melanoma, with MOLT-4 leukemia, in the experiment on NCI-H23 lung, in the experiment with OVCAR-8 ovarian, in the experiment with RPMI-8226 leukemia and with RXF 393 renal was over 100 µM each time. Also, the TGI with SK-MEL-2 melanoma, in the experiment on TK-10 renal and in the experiment on UACC-257 melanoma was over 100 µM throughout.

For the molecule `O=C(Nc1ccc(Cl)cc1)NS(=O)(=O)c1c(-c2ccccc2)oc2ccccc2c1=O`, the TGI in the experiment with CAKI-1 renal, with DU-145 prostate, in the experiment with EKVX NSCLC, in the experiment on HL-60(TB) leukemia, in the experiment with HS 578T breast and in the experiment on HT29 colon was over 100 µM throughout. Further, the TGI in the experiment with KM12 colon, in the experiment on MALME-3M melanoma, with MOLT-4 leukemia, with NCI-H23 lung, in the experiment with NCI-H460 lung and in the experiment with OVCAR-8 ovarian was over 100 µM in each case. Also, the TGI in the experiment with RPMI-8226 leukemia is over 100 µM; in the experiment with RXF 393 renal, over 100 µM; with SK-MEL-2 melanoma, over 100 µM; with SNB-75 CNS, over 100 µM; with TK-10 renal, 86.9 µM; with UACC-257 melanoma, over 100 µM.

As for `O=C1OC(CS(=O)(=O)c2ccccc2)CC1O` (stereo not given), the TGI in the experiment on BT-549 breast, in the experiment with CAKI-1 renal, with DU-145 prostate, in the experiment with EKVX NSCLC, in the experiment on HT29 colon and in the experiment with KM12 colon was over 100 µM in each case. For the same molecule, the TGI in the experiment with MALME-3M melanoma, in the experiment on MOLT-4 leukemia, in the experiment on NCI-H23 lung, in the experiment with NCI-H460 lung, in the experiment with OVCAR-8 ovarian and with RPMI-8226 leukemia was over 100 µM in each case. Also, the TGI in the experiment on RXF 393 renal, in the experiment on SK-MEL-2 melanoma, in the experiment with TK-10 renal and with UACC-257 melanoma was over 100 µM each time.
